Experimental data from US10010589B2, “Modified therapeutic agents, stapled peptide lipid conjugates, and compositions thereof” (priority 2013, dated 2018).
Like-named read-outs stand apart in the source and are kept apart here. *1 amine or outer side, *2 acyl side, *3 side chain or, on linkers, in order; H or OH if unused. Where a SMILES comes first, the peptide text is derived from it. Bridges are numbered along the chain shown (N, C = ends). [ ]: non-standard residue; d: D form. CH2CONH(CH2)4NHCOCH2 = O=C(C[*:1])NCCCCNC(=O)C[*:2]; CH2CONHCH2CH2NHCOCH2 = O=C(C[*:1])NCCNC(=O)C[*:2]; X1 = O=C(c1ccc(C[*:1])cc1)c1ccc(C[*:2])cc1

Experiments:
[1] = molecular target: T1, human glucagon-like peptide 1 receptor (GLP-1R) (Homo sapiens, UniProt P43220); experiment: cell-based
T1 construct: expressed in transfected cells
T1 sequence (P43220 24-463): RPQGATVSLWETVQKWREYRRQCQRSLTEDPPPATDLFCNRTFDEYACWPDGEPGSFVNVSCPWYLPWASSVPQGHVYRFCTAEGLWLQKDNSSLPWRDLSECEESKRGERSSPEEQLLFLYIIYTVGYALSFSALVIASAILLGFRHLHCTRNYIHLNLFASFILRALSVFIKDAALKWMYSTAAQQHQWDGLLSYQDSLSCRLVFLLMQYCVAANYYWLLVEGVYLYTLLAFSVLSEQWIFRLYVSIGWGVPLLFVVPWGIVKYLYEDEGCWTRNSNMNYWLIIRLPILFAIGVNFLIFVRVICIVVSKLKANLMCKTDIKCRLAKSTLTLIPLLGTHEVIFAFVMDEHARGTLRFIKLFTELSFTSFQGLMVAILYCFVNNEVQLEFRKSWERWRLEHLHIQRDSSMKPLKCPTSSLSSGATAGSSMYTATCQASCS
Experimental: (§1) HEK293 cells were infected with lent virus encoding firefly luciferase gene under the control of CRE promoter, as described in the manual (Qiagen, Netherlands) and then were selected using 1 μg/mL puromycin (Life technologies, Carlsbad) for 1 week. The survived cells were named as CRE-HEK293, expanded and then transfected with a G418 selective mammalian expression plasmid encoding human GCGR, GLP-1R, GIPR or GLP-2R. In brief, GCGR, GLP-1R, GIPR, or GLP-2R plasmid was transfected into CRE-HEK293 cells using Lipofectamine 2000 and selected with 400 μg/mL geneticin (Life technologies, Carlsbad, Calif.). Single colony stable cell lines overexpressing both CRE-luciferase and GCGR, GLP-1R, GIPR, or GLP-2R were then established for in vitro activity assays. These four stable cell lines were named as HEK293-GCGR-CRE, HEK293-GLP-1R-CRE, HEK293-GIPR-CRE, and HEK293-GLP-2R-CRE.
(§2) Cells were treated with different peptides in a dose dependent manner. On the next day, 10 μl of Bright-Glo reagent (Promega, Madison, Wis.) were added into each well and firefly luminescence was determined using an Envision multilabel plate reader (PerkinElmer, Waltham, Mass.). EC50 of each peptide was calculated using GraphPad Prism 6 software (GraphPad, San Diego, Calif.).

[2] = molecular target: T2, human glucagon receptor (GCGR) (Homo sapiens, UniProt P47871); experiment: GCGR CRE luciferase assay (receptor-mediated cAMP synthesis); assay type: cell-based
T2 construct: expressed in transfected cells
T2 sequence (P47871 26-477): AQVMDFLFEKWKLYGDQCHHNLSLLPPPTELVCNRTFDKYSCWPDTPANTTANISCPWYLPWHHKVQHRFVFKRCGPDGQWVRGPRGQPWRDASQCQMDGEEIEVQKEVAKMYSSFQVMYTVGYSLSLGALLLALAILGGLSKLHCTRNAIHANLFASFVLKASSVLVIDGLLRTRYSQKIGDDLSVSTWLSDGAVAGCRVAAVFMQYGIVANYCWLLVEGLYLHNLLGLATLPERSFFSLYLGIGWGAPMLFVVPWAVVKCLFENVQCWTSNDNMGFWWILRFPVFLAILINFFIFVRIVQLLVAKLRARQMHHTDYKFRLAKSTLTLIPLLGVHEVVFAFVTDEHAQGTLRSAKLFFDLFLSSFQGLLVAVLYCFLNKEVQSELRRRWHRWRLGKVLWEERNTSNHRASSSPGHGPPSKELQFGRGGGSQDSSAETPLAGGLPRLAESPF
Experimental: (§3) CREB responsive luciferase stable HEK 293 cell line overexpressing human glucagon receptor (GCGR), glucagon-like peptide 1 receptor (GLP-1R), Glucose-dependent insulinotropic polypeptide receptor (GIPR), or Glucagon-like peptide 2 receptor (GLP-2R) was generated as follows.
as §1
as §2, with “HEK293-GCGR-CRE, HEK293-GLP-1R-CRE, HEK293-GIPR-CRE, and HEK293-GLP-2R-CRE cells were seeded in a white 384-well plate at a density of 5,000 cells per well and cultured for 24 hours. Cells” for “Cells”

[3] = molecular target: T3, human Glucose-dependent insulinotropic polypeptide receptor (GIPR) (Homo sapiens, UniProt P48546); experiment: GIPR CRE luciferase assay (receptor-mediated cAMP synthesis); assay type: cell-based
T3 construct: expressed in transfected cells
T3 sequence (P48546 22-466): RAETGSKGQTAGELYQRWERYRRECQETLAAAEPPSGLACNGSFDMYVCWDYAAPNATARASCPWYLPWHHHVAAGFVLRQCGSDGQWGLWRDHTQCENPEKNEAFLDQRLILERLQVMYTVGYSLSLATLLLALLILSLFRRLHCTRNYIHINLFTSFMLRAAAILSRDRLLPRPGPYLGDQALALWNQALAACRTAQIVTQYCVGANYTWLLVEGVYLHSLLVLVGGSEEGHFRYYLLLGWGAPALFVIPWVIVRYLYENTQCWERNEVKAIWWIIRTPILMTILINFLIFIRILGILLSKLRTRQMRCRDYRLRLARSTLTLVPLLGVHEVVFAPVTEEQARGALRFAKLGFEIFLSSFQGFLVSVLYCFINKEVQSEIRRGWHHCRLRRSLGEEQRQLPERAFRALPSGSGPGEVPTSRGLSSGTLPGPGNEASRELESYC
Experimental: as §3
as §1, with “Single colony stable cell lines overexpressing both CRE-luciferase and GCGR, GLP-1R, GIPR, or GLP-2R were then established for in vitro activity assays. These four stable cell lines were named as HEK293-GCGR-CRE, HEK293-GLP-1R-CRE, HEK293-GIPR-CRE, and HEK293-GLP-2R-CRE.” left out
as §2, with “HEK293-GCGR-CRE, HEK293-GLP-1R-CRE, HEK293-GIPR-CRE, and HEK293-GLP-2R-CRE cells” for “Cells”, “seeded” for “treated with different peptides”, “white 384-well plate at a density of 5,000 cells per well and cultured for 24 hours. […]” for “dose dependent manner.”

[4] = HEK293-GLP-1R-CRE cells, luciferase readout, Table 6, read-out: GLP-1R (EC50)

SMILES	EC50 [1, 4]	EC50 [2]	EC50 [1]	EC50 [3]	EC50 ([1]; HEK293-GLP-1R-CRE cells, luciferase readout, Table 8, read-out: GLP-1R (EC50))	EC50 ([3]; HEK293-GIPR-CRE cells, luciferase readout, Table 8, read-out: GIP-R (EC50))
CC[C@H](C)[C@H](NC(=O)[C@H](CC(N)=O)NC(=O)[C@H](CC(N)=O)NC(=O)[C@H](CCCNC(=N)N)NC(=O)[C@H](CC(N)=O)NC(=O)[C@H](CCCNC(=N)N)NC(=O)[C@H](CCCCN)NC(=O)[C@@H](NC(=O)[C@H](CC(N)=O)NC(=O)[C@H](CCSC)NC(=O)[C@H](CC(C)C)NC(=O)[C@H](Cc1c[nH]c2ccccc12)NC(=O)[C@@H]1CSCc2ccc(cc2)C(=O)c2ccc(cc2)CSC[C@H](NC(=O)[C@H](CCC(=O)O)NC(=O)[C@H](CC(=O)O)NC(=O)[C@H](CC(C)C)NC(=O)[C@H](Cc2ccc(O)cc2)NC(=O)[C@H](CCCCN)NC(=O)[C@H](CO)NC(=O)[C@H](Cc2ccc(O)cc2)NC(=O)[C@H](CC(=O)O)NC(=O)[C@H](CO)NC(=O)[C@@H](NC(=O)[C@H](Cc2ccccc2)NC(=O)[C@@H](NC(=O)CNC(=O)[C@H](CCC(N)=O)NC(=O)[C@@H](CO)NC(=O)[C@@H](N)Cc2c[nH]cn2)[C@@H](C)O)[C@@H](C)O)C(=O)N[C@@H](C)C(=O)N[C@@H](C)C(=O)N[C@@H](CCCCN)C(=O)N[C@@H](CCC(=O)O)C(=O)N[C@@H](Cc2ccccc2)C(=O)N[C@@H]([C@@H](C)CC)C(=O)N1)[C@@H](C)O)C(=O)N[C@@H](C)C(N)=O [mTA21] (H-H[dS]QGTFTSDYSKYLDECAAKEFICWLMNTKRNRNNIA-NH2; linker 17-24 via X1)	0.12 nM	0.7 nM				
CC[C@H](C)[C@H](NC(=O)[C@H](CC(N)=O)NC(=O)[C@H](CC(N)=O)NC(=O)[C@H](CCCNC(=N)N)NC(=O)[C@H](CC(N)=O)NC(=O)[C@H](CCCNC(=N)N)NC(=O)[C@H](CCCCN)NC(=O)[C@@H](NC(=O)[C@H](CC(N)=O)NC(=O)[C@H](CCSC)NC(=O)[C@H](CC(C)C)NC(=O)[C@H](Cc1c[nH]c2ccccc12)NC(=O)[C@@H]1CSCC(=O)NCCNC(=O)CSC[C@H](NC(=O)[C@H](CCC(=O)O)NC(=O)[C@H](CC(=O)O)NC(=O)[C@H](CC(C)C)NC(=O)[C@H](Cc2ccc(O)cc2)NC(=O)[C@H](CCCCN)NC(=O)[C@H](CO)NC(=O)[C@H](Cc2ccc(O)cc2)NC(=O)[C@H](CC(=O)O)NC(=O)[C@H](CO)NC(=O)[C@@H](NC(=O)[C@H](Cc2ccccc2)NC(=O)[C@@H](NC(=O)CNC(=O)[C@H](CCC(N)=O)NC(=O)[C@@H](CO)NC(=O)[C@@H](N)Cc2c[nH]cn2)[C@@H](C)O)[C@@H](C)O)C(=O)N[C@@H](C)C(=O)N[C@@H](C)C(=O)N[C@@H](CCCCN)C(=O)N[C@@H](CCC(=O)O)C(=O)N[C@@H](Cc2ccccc2)C(=O)N[C@@H]([C@@H](C)CC)C(=O)N1)[C@@H](C)O)C(=O)N[C@@H](C)C(N)=O [mTA24] (H-H[dS]QGTFTSDYSKYLDECAAKEFICWLMNTKRNRNNIA-NH2; linker 17-24 via CH2CONHCH2CH2NHCOCH2)	0.2 nM	3 nM				
CC[C@H](C)[C@@H]1NC(=O)[C@H](Cc2ccccc2)NC(=O)[C@H](CCC(=O)O)NC(=O)[C@H](CCCCN)NC(=O)[C@H](C)NC(=O)[C@H](C)NC(=O)[C@@H](NC(=O)[C@H](CCC(=O)O)NC(=O)[C@H](CC(=O)O)NC(=O)[C@H](CC(C)C)NC(=O)[C@H](Cc2ccc(O)cc2)NC(=O)[C@H](CCCCN)NC(=O)[C@H](CO)NC(=O)[C@H](Cc2ccc(O)cc2)NC(=O)[C@H](CC(=O)O)NC(=O)[C@H](CO)NC(=O)[C@@H](NC(=O)[C@H](Cc2ccccc2)NC(=O)[C@@H](NC(=O)CNC(=O)[C@H](CCC(N)=O)NC(=O)[C@@H](CO)NC(=O)[C@@H](N)Cc2c[nH]cn2)[C@@H](C)O)[C@@H](C)O)CSCC(=O)NCCCCNC(=O)CSC[C@@H](C(=O)N[C@@H](Cc2c[nH]c3ccccc23)C(=O)N[C@@H](CC(C)C)C(=O)N[C@@H](CC(C)C)C(=O)N[C@@H](CCCNC(=N)N)C(=O)N[C@@H](C)C(N)=O)NC1=O [mTA29] (H-H[dS]QGTFTSDYSKYLDECAAKEFICWLLRA-NH2; linker 17-24 via CH2CONH(CH2)4NHCOCH2)	0.03 nM	0.03 nM				
CC[C@H](C)[C@H](NC(=O)[C@H](CO)NC(=O)[C@H](Cc1ccc(O)cc1)NC(=O)[C@H](CC(=O)O)NC(=O)[C@H](CO)NC(=O)[C@@H](NC(=O)[C@H](Cc1ccccc1)NC(=O)[C@@H](NC(=O)CNC(=O)[C@H](CCC(=O)O)NC(=O)[C@@H](C)NC(=O)[C@@H](N)Cc1ccc(O)cc1)[C@@H](C)O)[C@@H](C)O)C(=O)N[C@@H](Cc1ccc(O)cc1)C(=O)N[C@@H](CC(C)C)C(=O)N[C@@H](CC(=O)O)C(=O)N[C@@H](CCCCN)C(=O)N[C@H]1CSCC(=O)NCCCCNC(=O)CSC[C@@H](C(=O)N[C@@H](Cc2c[nH]c3ccccc23)C(=O)N[C@@H](CC(C)C)C(=O)N[C@@H](CC(C)C)C(=O)N[C@@H](C)C(=O)NCC(=O)NCC(=O)N2CCC[C@H]2C(=O)N[C@@H](CO)C(=O)N[C@@H](CO)C(=O)NCC(=O)N[C@@H](C)C(=O)N2CCC[C@H]2C(=O)N2CCC[C@H]2C(=O)N2CCC[C@H]2C(=O)N[C@@H](CO)C(=O)N[C@@H](CCCCN)C(N)=O)NC(=O)[C@H](C(C)C)NC(=O)[C@H](Cc2ccccc2)NC(=O)[C@H](CCC(=O)O)NC(=O)[C@H](CCCCN)NC(=O)[C@H](C)NC(=O)[C@H](C)NC1=O [mTA40] (H-Y[dA]EGTFTSDYSIYLDKCAAKEFVCWLLAGGPSSGAPPPSK-NH2; linker 17-24 via CH2CONH(CH2)4NHCOCH2)			0.02 nM	0.02 nM		
CC[C@H](C)[C@H](NC(=O)[C@H](CC(N)=O)NC(=O)[C@H](CC(N)=O)NC(=O)[C@H](CCCNC(=N)N)NC(=O)[C@H](CC(N)=O)NC(=O)[C@H](CCCNC(=N)N)NC(=O)[C@H](CCCCN)NC(=O)[C@@H](NC(=O)[C@H](CC(N)=O)NC(=O)[C@H](CCSC)NC(=O)[C@H](CC(C)C)NC(=O)[C@H](Cc1c[nH]c2ccccc12)NC(=O)[C@@H]1CSCC(=O)NCCCCNC(=O)CSC[C@H](NC(=O)[C@H](CCC(=O)O)NC(=O)[C@H](CC(=O)O)NC(=O)[C@H](CC(C)C)NC(=O)[C@H](Cc2ccc(O)cc2)NC(=O)[C@H](CCCCN)NC(=O)[C@H](CO)NC(=O)[C@H](Cc2ccc(O)cc2)NC(=O)[C@H](CC(=O)O)NC(=O)[C@H](CO)NC(=O)[C@@H](NC(=O)[C@H](Cc2ccccc2)NC(=O)[C@@H](NC(=O)CNC(=O)[C@H](CCC(=O)O)NC(=O)[C@@H](C)NC(=O)[C@@H](N)Cc2ccc(O)cc2)[C@@H](C)O)[C@@H](C)CC)C(=O)N[C@@H](C)C(=O)N[C@@H](C)C(=O)N[C@@H](CCCCN)C(=O)N[C@@H](CCC(=O)O)C(=O)N[C@@H](Cc2ccccc2)C(=O)N[C@@H]([C@@H](C)CC)C(=O)N1)[C@@H](C)O)C(=O)N[C@@H](C)C(N)=O [mTA44] (H-Y[dA]EGTFISDYSKYLDECAAKEFICWLMNTKRNRNNIA-NH2; linker 17-24 via CH2CONH(CH2)4NHCOCH2)		1.6 nM			9.7 nM	0.04 nM
